One test concerns Human whole blood pERK. Briefly: Assay 11: DGK Human Whole Blood pERK Assay. The settings on record: anti-CD3 stimulation, pERK positive within CD8 positive population, starting concentration 20 μM, read-out: DGK HWB pERK IC50. Type of test: cell-based. Here is the method:
Assay 11: DGK Human Whole Blood pERK Assay
Human whole blood ERK phosphorylation assay was performed with human venous whole blood obtained from healthy donors (drawn with Heparin as anti-coagulant). Serial dilutions of compounds (11 points, 3-fold) in DMSO were added to 384 well plates at 20 nL/well using an ECHO 550 acoustic dispenser (Labcyte) to achieve final starting concentration of 20 μM in assay. Heparinized human whole blood was added to the compound plate at 9 μL per well and incubated for one hour at 37° C. in a humidified 95%, air/5% CO2 incubator. After one hour of compound incubation, 1 μL of human anti-CD3 antibody (in-house) in the presence of cross-linking antibody goat anti-mouse IgG (4 μg/mL) was added to the well at 1 μg/mL final concentration for stimulation of pathway and additionally incubated for 15 minutes at 37° C. Stimulation was stopped by adding 90 μL Fix/Lyse buffer (BD 558049). Cells were washed and stained with anti-CD8 PE (BD 555635) antibodies for 60 minutes at room temperature, washed again, and permeabilized on ice using Perm III buffer (BD 558050) for 30 minutes. Cells were then stained with an Alexa Fluor® 647 anti-ERK1/2 Phospho (Thr202/Tyr204) Antibody (Bioleged 675504) for 60 minutes at 1:50 dilution. Samples were washed and resuspended in dPBS containing 1% BSA (dPBS, Gibco 14190136; BSA, Sigma-Aldrich A9205). Samples analyzed using the Intellicyt® iQue Screener PLUS. The pERK activation was quantitated by the percentage of pERK positive population within CD8 positive population.

For another test, the target named is DGKζ (Homo sapiens (Human), UniProt Q13574). Briefly: Assay 1 or 2: In Vitro DGK Inhibition Assays (DGKζ LIPGLO, extruded liposome). As to conditions: extruded liposome substrate, 150 μM ATP. The test is classed as biochemical.

Like-named read-outs stand apart in the source and are kept apart here.

Sequence of DGKζ (Q13574 other isoform, or with tags, fused parts or gaps): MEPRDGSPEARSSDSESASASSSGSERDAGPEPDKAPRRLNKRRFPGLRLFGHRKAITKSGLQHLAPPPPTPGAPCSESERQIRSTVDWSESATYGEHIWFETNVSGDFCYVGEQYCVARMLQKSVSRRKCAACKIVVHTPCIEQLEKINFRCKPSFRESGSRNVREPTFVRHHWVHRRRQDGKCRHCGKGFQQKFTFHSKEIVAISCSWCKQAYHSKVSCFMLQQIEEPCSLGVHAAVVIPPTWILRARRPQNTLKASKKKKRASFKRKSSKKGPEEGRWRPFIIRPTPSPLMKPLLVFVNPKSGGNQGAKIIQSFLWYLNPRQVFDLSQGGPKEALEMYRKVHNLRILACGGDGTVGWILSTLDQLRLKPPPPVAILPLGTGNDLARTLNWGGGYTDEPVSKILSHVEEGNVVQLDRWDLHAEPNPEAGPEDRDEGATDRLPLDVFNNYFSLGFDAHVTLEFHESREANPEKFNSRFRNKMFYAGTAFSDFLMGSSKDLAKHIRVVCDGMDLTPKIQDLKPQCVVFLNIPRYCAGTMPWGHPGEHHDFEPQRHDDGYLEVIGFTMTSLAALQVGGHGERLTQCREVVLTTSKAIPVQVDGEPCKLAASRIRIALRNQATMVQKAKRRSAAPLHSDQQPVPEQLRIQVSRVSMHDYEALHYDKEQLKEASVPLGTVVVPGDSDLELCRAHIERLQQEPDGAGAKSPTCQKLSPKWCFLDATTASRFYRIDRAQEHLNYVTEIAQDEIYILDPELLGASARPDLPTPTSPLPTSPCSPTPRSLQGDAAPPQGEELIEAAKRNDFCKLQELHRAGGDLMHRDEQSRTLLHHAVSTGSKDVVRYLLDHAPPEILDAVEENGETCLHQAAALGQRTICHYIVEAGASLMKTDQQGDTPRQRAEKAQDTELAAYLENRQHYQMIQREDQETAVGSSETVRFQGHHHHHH

In the case of `CC[C@H]1CN(C(C(=O)N2CCOCC2)c2ccc(C(F)(F)F)cc2)[C@H](CC)CN1c1nc(=O)n(C)c2ccc(C#N)nc12` (single isomer, unassigned) [Example 53], the IC50 was 5.53 µM in the test with Human whole blood pERK (Homo sapiens, CD8 positive) and 3.29 µM on DGKζ.

Regarding `CC[C@H]1CN(C(C(=O)N2CCOCC2)c2ccc(C(F)(F)F)cc2)[C@H](CC)CN1c1nc(=O)n(C)c2ccc(C#N)nc12` (single isomer, unassigned) [Example 54], the IC50 stood at 3.51 µM in the test with Human whole blood pERK and 0.58 µM against DGKζ.

On to `CC[C@H]1CN(C(C(=O)NCCOC)c2ccc(C(F)(F)F)cc2)[C@H](CC)CN1c1nc(=O)n(C)c2ccc(C#N)nc12` (single isomer, unassigned) [Example 56], for which the IC50 in the test on Human whole blood pERK (Homo sapiens, CD8 positive) was determined as 0.3 µM; at DGKζ, 0.1 µM.

(Values after patent US12454531B2, “Substituted piperazine derivatives useful as T cell activators” (BRISTOL-MYERS SQUIBB COMPANY, priority 2019, dated 2025).)
